Reference: ChEMBL document CHEMBL1154238, “Identification of specific small molecule ligands for stem loop 3 ribonucleic acid of the packaging signal Psi of human immunodeficiency virus-1” (J Med Chem, 2009)
Values belong to the compound of their own block, whether it stands above or below them. Active and inactive are the calls of the source. The calls are words filed in the database; no cut-off is given here.

Columns and labels:
Nucleic Acid [1] = assay: Binding affinity to fluorescein-labeled 20mer stem loop 3 HIV1 RNA of packaging element psi by titration method; assay type: nucleic-acid assay, Human immunodeficiency virus 1
Nucleic Acid [2] = assay: Selectivity ratio of Kd for fluorescein-labeled HIV1 single-stranded RNA of packaging element psi to Kd for fluorescein-labeled 20mer stem loop 3 HIV1 RNA of packaging element psi; assay type: nucleic-acid assay; conditions: Human immunodeficiency virus 1
Nucleic Acid [3] = assay: Binding affinity to fluorescein-labeled HIV1 duplex RNA of packaging element psi by titration method; assay type: nucleic-acid assay, Human immunodeficiency virus 1
Nucleic Acid [4] = assay: Binding affinity to fluorescein-labeled HIV1 single-stranded RNA of packaging element psi by titration method; assay type: nucleic-acid assay, Human immunodeficiency virus 1
Nucleic Acid [5] = assay: Binding affinity to fluorescein-labeled stem loop 3 HIV1 duplex RNA of packaging element psi by titration method; assay type: nucleic-acid assay, Human immunodeficiency virus 1
Nucleic Acid [6] = assay: Selectivity ratio of Kd for fluorescein-labeled HIV1 duplex RNA of packaging element psi to Kd for fluorescein-labeled 20mer stem loop 3 HIV1 RNA of packaging element psi; assay type: nucleic-acid assay; conditions: Human immunodeficiency virus 1
Nucleic Acid [7] = assay: Selectivity ratio of Kd for fluorescein-labeled stem loop 4 HIV1 RNA of packaging element psi to Kd for fluorescein-labeled 14mer stem loop 3 HIV1 RNA of packaging element psi; assay type: nucleic-acid assay; conditions: Human immunodeficiency virus 1
Nucleic Acid [8] = assay: Selectivity ratio of Kd for fluorescein-labeled stem loop 2 HIV1 RNA of packaging element psi to Kd for fluorescein-labeled 14mer stem loop 3 HIV1 RNA of packaging element psi; assay type: nucleic-acid assay; conditions: Human immunodeficiency virus 1
Nucleic Acid [9] = assay: Selectivity ratio of Kd for fluorescein-labeled HIV1 single-stranded RNA of packaging element psi to Kd for fluorescein-labeled 14mer stem loop 3 HIV1 RNA of packaging element psi; assay type: nucleic-acid assay; conditions: Human immunodeficiency virus 1
Nucleic Acid [10] = assay: Binding affinity to fluorescein-labeled stem loop 2 HIV1 RNA of packaging element psi by titration method; assay type: nucleic-acid assay, Human immunodeficiency virus 1
Nucleic Acid [11] = assay: Selectivity ratio of Kd for fluorescein-labeled HIV1 duplex RNA of packaging element psi to Kd for fluorescein-labeled 14mer stem loop 3 HIV1 RNA of packaging element psi; assay type: nucleic-acid assay; conditions: Human immunodeficiency virus 1
Nucleic Acid [12] = assay: Binding affinity to fluorescein-labeled stem loop 4 HIV1 RNA of packaging element psi by titration method; assay type: nucleic-acid assay, Human immunodeficiency virus 1
Nucleic Acid [13] = assay: Stabilization of stem loop 3 HIV1 RNA of packaging element psi assessed as protection against RNase 1-mediated cleavage at 500 uM by footprinting method; assay type: nucleic-acid assay; conditions: Human immunodeficiency virus 1
Nucleic Acid [14] = assay: Binding affinity to strong binding site of unlabeled stem loop 2 HIV1 RNA of packaging element psi by isothermal titration calorimetry; assay type: nucleic-acid assay, Human immunodeficiency virus 1
Nucleic Acid [15] = assay: Binding affinity to fluorescein-labeled 14mer stem loop 3 HIV1 RNA of packaging element psi by titration method; assay type: nucleic-acid assay, Human immunodeficiency virus 1
Nucleic Acid [16] = assay: Binding affinity to weaker binding site of unlabeled stem loop 2 HIV1 RNA of packaging element psi by isothermal titration calorimetry; assay type: nucleic-acid assay, Human immunodeficiency virus 1
Nucleic Acid [17] = assay: Binding affinity to stem loop 3 HIV1 RNA of packaging element psi assessed as RNA intercalation at 55 to 110 uM by CD spectroscopy; assay type: nucleic-acid assay; conditions: Human immunodeficiency virus 1
Nucleic Acid [18] = assay: Stabilization of stem loop 3 HIV1 RNA of packaging element psi assessed as melting temperature by UV spectroscopy; assay type: nucleic-acid assay; conditions: Human immunodeficiency virus 1
Nucleic Acid [19] = assay: Selectivity ratio of Kd for HIV1 single-stranded RNA to Kd for 20mer stem loop 3 HIV1 RNA; assay type: nucleic-acid assay; conditions: Human immunodeficiency virus 1
[20] = Solubility in DMSO; assay type: physicochemical
[21] = Solubility in water; assay type: physicochemical; conditions: buffer
Nucleic Acid [22] = assay: Binding affinity to fluorescein-labeled stem loop 3 HIV1 RNA of packaging element psi after 72 hrs by mass spectroscopy; assay type: nucleic-acid assay; conditions: Human immunodeficiency virus 1
Nucleic Acid [23] = assay: Binding affinity to stem loop 3 HIV1 RNA of packaging element psi assessed as RNA intercalation at 55 to 220 uM by CD spectroscopy; assay type: nucleic-acid assay; conditions: Human immunodeficiency virus 1
Nucleic Acid [24] = assay: Binding affinity to 2-aminopurine-labeled stem loop 4 HIV1 RNA of packaging element psi by titration method; assay type: nucleic-acid assay, Human immunodeficiency virus 1
Nucleic Acid [25] = assay: Binding affinity to fluorescein-labeled stem loop 3 HIV1 RNA of packaging element psi by titration method; assay type: nucleic-acid assay; conditions: Human immunodeficiency virus 1
Nucleic Acid [26] = assay: Binding affinity to unlabeled 20mer stem loop 3 HIV1 RNA of packaging element psi by titration method; assay type: nucleic-acid assay, Human immunodeficiency virus 1

SMILES: Cc1cc(N2CCN(C)CC2)n2nc(-c3ccc(Cl)cc3)nc2n1
Selectivity ratio (Nucleic Acid [7]): 7
Selectivity ratio (Nucleic Acid [8]): 4
Selectivity ratio (Nucleic Acid [9]): 25
Kd (Nucleic Acid [3]): 69 µM
Kd (Nucleic Acid [10]; read-out: Kd): 46 µM
Selectivity ratio (Nucleic Acid [11]): 5
Kd (Nucleic Acid [4]): 276 µM
Kd (Nucleic Acid [12]): 70 µM
Kd (Nucleic Acid [5]; read-out: Kd): 58 µM
Activity (Nucleic Acid [13]): Active
Kd (Nucleic Acid [14]): 15 µM
Kd (Nucleic Acid [15]): 11 µM
Kd (Nucleic Acid [16]): 2250 µM
Activity (Nucleic Acid [17]): inactive
Tm (Nucleic Acid [18]): 78.2 °C

SMILES: COc1ccc2nc3cc(Cl)ccc3c(Nc3ccc(O)c(CN4CCN(C)CC4)c3)c2c1
Kd (Nucleic Acid [1]): 0.67 µM
Selectivity ratio (Nucleic Acid [19]): 4.4
Kd (Nucleic Acid [3]): 0.87 µM
Kd (Nucleic Acid [4]): 3 µM

SMILES: C[N+]1(C)C2CC(OC(=O)C(CO)c3ccccc3)CC1C1OC12 (stereo unspecified)
Kd (Nucleic Acid [15]): 157 µM

SMILES: COC1=C(C)C(=O)c2c(c(COC(N)=O)c3n2CC2C3N2C)C1=O (stereo unspecified)
Selectivity ratio (Nucleic Acid [9]): 50
Kd (Nucleic Acid [3]): 345 µM
Kd (Nucleic Acid [10]): Not Active
Activity (Nucleic Acid [22]): Active
Selectivity ratio (Nucleic Acid [11]): 3.5
Kd (Nucleic Acid [4]): > 4900 µM
Activity (Nucleic Acid [13]): Active
Activity (Nucleic Acid [23]): Active
Kd (Nucleic Acid [14]): 110 µM
Kd (Nucleic Acid [15]): 98 µM
Kd (Nucleic Acid [16]): 11000 µM
Kd (Nucleic Acid [24]): 79 µM
Tm (Nucleic Acid [18]): 79.2 °C

SMILES: C[N+](C)(C)CCN[N+]1(C)CCCc2ccccc21 (stereo unspecified)
Kd (Nucleic Acid [1]): 1.5 µM
Selectivity ratio (Nucleic Acid [2]): 4
Kd (Nucleic Acid [3]): 6.1 µM
Kd (Nucleic Acid [4]): 7.8 µM
Kd (Nucleic Acid [5]; read-out: Kd): 14 µM
Selectivity ratio (Nucleic Acid [6]): 4

SMILES: CN(C)c1ncnc2c1ncn2CCn1cnc2ncnc(N(C)C)c21
Kd (Nucleic Acid [26]): 32 µM

SMILES: C[N+]1(C)CCc2cc(O)c(O)cc2C1Cc1ccc(O)c(O)c1 (stereo unspecified)
Kd (Nucleic Acid [1]): 135 µM

More lines, now with the values ahead:

Kd (Nucleic Acid [1]): 1.4 µM
Selectivity ratio (Nucleic Acid [2]): 2
Kd (Nucleic Acid [3]): 3 µM
Kd (Nucleic Acid [4]): 2.3 µM
Kd (Nucleic Acid [5]): Not Active
Selectivity ratio (Nucleic Acid [6]): 2
SMILES: CCOC(=O)c1c2c(n3ccccc13)C(=O)c1ccccc1C2=O

solubility [20]: Insoluble
solubility [21]: Insoluble
SMILES: Cc1ccn2c(CCc3nnc4cc(C)ccn34)nnc2c1

Kd (Nucleic Acid [1]): 163 µM
SMILES: O=C1Oc2ccccc2C(=O)/C1=C/N1C(=O)N/C(=C\c2ccccc2O)C1=O

Activity (Nucleic Acid [25]): inactive
SMILES: Cn1c(N)nc2c(nc(OCc3ccccc3)n2[C@@H]2O[C@H](CO)[C@@H](O)[C@@H]2O)c1=O
